Laboratory results: US20030134784A1, “Nucleic acids and corresponding proteins entitled 83P2H3 and CaTrF2E11 useful in treatment and detection of cancer” (priority 2000, published 2003)

How the values were obtained:
[1] = system: 83P2H3/hCaT-expressing PC3 cell; experiment: ERK phosphorylation in response to ion channel activators (anti-phospho-ERK Western blotting); assay type: cell-based, human; settings: hCaT-expressing PC3 cells grown in 0.1% FBS, treated for 5 min
Text: (§1) FIG. 22. Mediation of ERK phosphorylation by hCaT via a variety of ion channel activators. Control and 83P2H3/hCaT-expressing PC3 cell were compared for their ability to induce ERK phosphorylation in response to ion channel activators known to regulate intracellular calcium levels in several cell types. […] Whole cell lysates were separated by SDS-PAGE and analyzed by Western blotting using an anti-phospho-ERK monoclonal antibody (New England Nuclear, Bedford, Mass.). Anti-ERK overlays were used to evaluate protein loading.
(§2) Many mammalian proteins have been reported to interact with signaling molecules and to participate in regulating signaling pathways (J Neurochem. 2001; 76:217-223). Using immunoprecipitation and Western blotting techniques, proteins are identified that associate with 83P2H3 and mediate signaling events. Several pathways known to play a role in cancer biology can be regulated by several of these genes, including phospholipid pathways such as P13K, AKT, etc, adhesion and migration pathways, including FAK, Rho, Rac-1, etc, as well as mitogenic/survival cascades such as ERK, p38, etc (Cell Growth Differ. 2000,11:279; J Biol Chem. 1999, 274:801; Oncogene 2000, 19:3003, J. Cell Biol. 1997, 138:913.). Using Western blotting techniques, the ability of 83P2H3 to regulate these pathways is examined. Cells expressing 83P2H3 and cells lacking these genes are either left untreated or stimulated with ions, channel activators, or antibodies. Cell lysates are analyzed using anti-phospho-specific antibodies (Cell Signaling, Santa Cruz Biotechnology) in order to detect phosphorylation and regulation of ERK, p38, AKT, P13K, PLC and other signaling molecules.

[2] = system: PC3-neo cells; experiment: as above; assay type: cell-based, human; settings: PC3-neo cells grown in 0.1% FBS, treated for 5 min
Text: as §1, §2

[3] = system: HLA-DR; settings: cited from earlier work
[4] = system: T helper lymphocytes; settings: regardless of HLA type; cited from earlier work

Molecule | ERK phosphorylation [1] | ERK phosphorylation [2] | Binding to HLA-DR alleles [3] | Stimulation of the response of T helper lymphocytes [4]
CCCCCCCCCCCCCC(=O)O[C@@H]1[C@@H](C)[C@@]2(O)[C@@H](C=C(CO)C[C@]3(O)C(=O)C(C)=C[C@@H]23)[C@@H]2C(C)(C)[C@]12OC(C)=O [PMA] | induced ERK phosphorylation | induced ERK phosphorylation | – | –
C[C@H](CCC(=O)O)C[C@H](C)C[C@H](C)C(=O)/C=C(\O)[C@H](C)C[C@H](C)C/C=C/[C@@H](C)[C@@H](O)[C@@H](C)[C@@H](O)C[C@@H]1CC[C@@](C)([C@H]2CC[C@@](C)([C@@H](C)O)O2)O1 [ionomycin] | induced ERK phosphorylation | – | – | –
LPA | induced ERK phosphorylation | – | – | –
aKXVAAWTLKAAa | – | – | bind to most HLA-DR alleles | stimulate the response of T helper lymphocytes from most individuals
